This is an account of results in patent publication US8329717B2, “Pyrimidine derivatives and their use for controlling undesired plant growth” (Bayer Cropscience AG, priority 2008, dated 2012).

For data set [1], the system named is Setaria viridis. Nature of the data set: Post-emergence herbicidal effect. The format is in vivo. Particulars: Dosage 320 g/ha, one-leaf stage, visual scoring after ca. 3 weeks vs untreated controls, 100% = plants have died. The protocol:
(§1) The following abbreviations are used in the tables below: [table] 2. Post-Emergence Herbicidal Effect and Crop Plant Compatibility Seeds of monocotyledonous or dicotyledonous weed plants or crop plants are planted in wood-fiber pots in sandy loam, covered with earth and grown in a greenhouse under good growth conditions. 2 to 3 weeks after sowing, the test plants are treated in the one-leaf stage. The compounds according to the invention, formulated in the form of wettable powders (WP) or as emulsion concentrates (EC), are then sprayed onto the green plant parts as aqueous suspension or emulsion at a water application rate of 600 to 800 l/ha (converted) with the addition of 0.2% of wetting agent. The dosage of the compounds according to the invention is given in grams per hectare. After ca. 3 weeks' standing time of the test plants in the greenhouse under optimum growth conditions, the effect of the preparations is scored visually in comparison with untreated controls (herbicidal effect in percent (%): 100% effect=plants have died, 0% effect=as control plants).

Data set [2] deals with Echinochloa crus-galli. Nature of the data set: Post-emergence herbicidal effect. The format is in vivo. Particulars: Dosage 320 g/ha, one-leaf stage, visual scoring after ca. 3 weeks vs untreated controls, 100% = plants have died. On the procedure:
as §1

Data set [3] has as its system Veronica persica. Nature of the data set: Post-emergence herbicidal effect. It counts as in vivo. The note with it: Dosage 320 g/ha, one-leaf stage, visual scoring after ca. 3 weeks vs untreated controls, 100% = plants have died. On the procedure:
as §1

Data set [4] deals with Stellaria media. Nature of the data set: Post-emergence herbicidal effect. It counts as in vivo. Particulars: Dosage 320 g/ha, one-leaf stage, visual scoring after ca. 3 weeks vs untreated controls, 100% = plants have died. On the procedure:
as §1

Data set [5] in a line: logp (HCOOH), chemicophysical data. Particulars: HCOOH.
The subject of data set [6] is Setaria viridis. Nature of the data set: Pre-emergence herbicidal effect. The format is in vivo. The note with it: Dosage 320 g/ha, visual scoring after 3 weeks vs untreated controls, 100% = plants have died. The text has this: (§2) 1. Pre-Emergence Herbicidal Effect and Crop Plant Compatibility Seeds of monocotyledonous or dicotyledonous weed plants or crop plants are planted in wood-fiber pots in sandy loam and covered with earth. The compounds according to the invention, formulated in the form of wettable powders (WP) or as emulsion concentrates (EC), are then applied as aqueous suspension or emulsion at a water application rate of 600 to 800 l/ha (converted) with the addition of 0.2% of wetting agent to the surface of the covering earth. The dosage of the compounds according to the invention is given in grams per hectare. Following the treatment, the pots are placed in a greenhouse and kept under good growth conditions for the test plants. The visual scoring of the damage on the test plants is carried out after an experiment time of 3 weeks in comparison with untreated controls (herbicidal effect in percent (%): 100% effect=plants have died, 0% effect=as control plants). The following abbreviations are used in the tables below: [table]

Data set [7] deals with Polygonum convolvulus. Nature of the data set: Pre-emergence herbicidal effect. The format is in vivo. Particulars: Dosage 320 g/ha, visual scoring after 3 weeks vs untreated controls, 100% = plants have died.
From the text: as §2

The test system of data set [8] is Alopecurus myosuroides. Nature of the data set: Pre-emergence herbicidal effect. The format is in vivo. The note with it: Dosage 320 g/ha, visual scoring after 3 weeks vs untreated controls, 100% = plants have died.
From the text: as §2

For data set [9], the system named is Echinochloa crus-galli. Nature of the data set: Pre-emergence herbicidal effect. The note with it: Dosage 320 g/ha, visual scoring after 3 weeks vs untreated controls, 100% = plants have died. The format is in vivo.
From the text: as §2

For data set [10], the system named is Veronica persica. Nature of the data set: Pre-emergence herbicidal effect. It counts as in vivo. Particulars: Dosage 320 g/ha, visual scoring after 3 weeks vs untreated controls, 100% = plants have died.
From the text: as §2

The test system of data set [11] is Matricaria inodora. Nature of the data set: Pre-emergence herbicidal effect. It counts as in vivo. Particulars: Dosage 320 g/ha, visual scoring after 3 weeks vs untreated controls, 100% = plants have died.
From the text: as §2

In data set [12] the test system is Avena fatua. Nature of the data set: Pre-emergence herbicidal effect. It counts as in vivo. The note with it: Dosage 320 g/ha, visual scoring after 3 weeks vs untreated controls, 100% = plants have died.
From the text: as §2

Data set [13] relates to Viola tricolor. Nature of the data set: Pre-emergence herbicidal effect. The note with it: Dosage 320 g/ha, visual scoring after 3 weeks vs untreated controls, 100% = plants have died. The format is in vivo.
From the text: as §2

The test system of data set [14] is Stellaria media. Nature of the data set: Pre-emergence herbicidal effect. The note with it: Dosage 320 g/ha, visual scoring after 3 weeks vs untreated controls, 100% = plants have died. It counts as in vivo.
From the text: as §2

Data set [15] relates to Amaranthus retroflexus. Nature of the data set: Pre-emergence herbicidal effect. The format is in vivo. Particulars: Dosage 320 g/ha, visual scoring after 3 weeks vs untreated controls, 100% = plants have died.
From the text: as §2

Data set [16] relates to Lolium multiflorum. Nature of the data set: Post-emergence herbicidal effect. The format is in vivo. Particulars: Dosage 320 g/ha, one-leaf stage, visual scoring after ca. 3 weeks vs untreated controls, 100% = plants have died. The protocol:
as §1

The test system of data set [17] is Amaranthus retroflexus. Nature of the data set: Post-emergence herbicidal effect. The format is in vivo. The note with it: Dosage 320 g/ha, one-leaf stage, visual scoring after ca. 3 weeks vs untreated controls, 100% = plants have died. The protocol: as §1
Data set [18] relates to Lolium multiflorum. Nature of the data set: Pre-emergence herbicidal effect. Particulars: Dosage 320 g/ha, visual scoring after 3 weeks vs untreated controls, 100% = plants have died. The format is in vivo.
From the text: as §2

The test system of data set [19] is Viola tricolor. Nature of the data set: Post-emergence herbicidal effect. Particulars: Dosage 320 g/ha, one-leaf stage, visual scoring after ca. 3 weeks vs untreated controls, 100% = plants have died. It counts as in vivo. The protocol:
as §1

The subject of data set [20] is Abutilon theophrasti. Nature of the data set: Post-emergence herbicidal effect. The format is in vivo. The note with it: Dosage 320 g/ha, one-leaf stage, visual scoring after ca. 3 weeks vs untreated controls, 100% = plants have died. On the procedure: as §1

`CCc1nc(N[C@@H]2CCCc3ccccc32)nc(N)c1C#N` [Example 1.63]: the “Post-emergence herbicidal effect SETVI” value in data set [1] was 80%. The “Post-emergence herbicidal effect ECHCG” value in data set [2] worked out at 80%. The “Post-emergence herbicidal effect VERPE” value in data set [3] came to 80%. Moreover, in [4], the “Post-emergence herbicidal effect STEME” value was 80%. Further, the “logp (HCOOH)” value in data set [5] is recorded as “wax-like; logp (HCOOH): 2.49; 1H-NMR (CDCl3, 400 MHZ, δ in ppm): 1.25 (t, 3H, CH3);”. The “Pre-emergence herbicidal effect SETVI” value in [6] is 100%. Also, the “Pre-emergence herbicidal effect POLCO” value in data set [7] amounted to 100%. Also, the “Pre-emergence herbicidal effect ALOMY” value in [8] is 100%. The “Pre-emergence herbicidal effect ECHCG” value in data set [9] stood at 100%. In data set [10], the “Pre-emergence herbicidal effect VERPE” value amounted to 100%. Moreover, the “Pre-emergence herbicidal effect MATIN” value in data set [11] worked out at 100%. Moreover, the “Pre-emergence herbicidal effect AVEFA” value in data set [12] stood at 80%. Moreover, the “Pre-emergence herbicidal effect VIOTR” value in data set [13] was found to be 100%. In addition, the “Pre-emergence herbicidal effect STEME” value in data set [14] is listed as 100%. Further, in [15], the “Pre-emergence herbicidal effect AMARE” value is 90%.
As for `Nc1nc(N[C@@H]2CCCc3ccccc32)ncc1Br` [Example 1.97], the “Post-emergence herbicidal effect SETVI” value in data set [1] was 80%. The “Post-emergence herbicidal effect LOLMU” value in [16] turned out to be 80%. For the same compound, the “Post-emergence herbicidal effect ECHCG” value in data set [2] was 80%. The “Post-emergence herbicidal effect VERPE” value in data set [3] is recorded as 80%. The “Post-emergence herbicidal effect STEME” value in data set [4] came to 80%. Besides, in data set [17], the “Post-emergence herbicidal effect AMARE” value is 80%. In [6], the “Pre-emergence herbicidal effect SETVI” value came out at 100%. Also, in data set [18], the “Pre-emergence herbicidal effect LOLMU” value worked out at 100%. Further, the “Pre-emergence herbicidal effect ALOMY” value in [8] stood at 80%. The “Pre-emergence herbicidal effect ECHCG” value in data set [9] worked out at 100%. For the same compound, the “Pre-emergence herbicidal effect VERPE” value in data set [10] worked out at 100%. For the same compound, in [11], the “Pre-emergence herbicidal effect MATIN” value is given as 100%. Also, the “Pre-emergence herbicidal effect VIOTR” value in data set [13] is 100%. In addition, the “Pre-emergence herbicidal effect STEME” value in [14] turned out to be 100%. Besides, the “Pre-emergence herbicidal effect AMARE” value in data set [15] is listed as 100%.
For `CCc1nc(N[C@H]2c3cc(C)ccc3C[C@@H]2C)nc(N)c1C#N` [Example 1.61], in data set [2], the “Post-emergence herbicidal effect ECHCG” value stood at 90%. Also, the “Post-emergence herbicidal effect VERPE” value in data set [3] came to 90%. In addition, the “Post-emergence herbicidal effect VIOTR” value in data set [19] stood at 80%. Further, in data set [20], the “Post-emergence herbicidal effect ABUTH” value was determined as 80%. For the same compound, the “Post-emergence herbicidal effect STEME” value in data set [4] worked out at 90%. For the same compound, the “logp (HCOOH)” value in data set [5] was “solid, m.p.: 126.9° C.; logp (HCOOH): 3.07; 1H-NMR (CDCl3, 400 MHZ, δ in ppm): 1.25”. In [6], the “Pre-emergence herbicidal effect SETVI” value stood at 90%. The “Pre-emergence herbicidal effect POLCO” value in data set [7] stood at 100%. Also, the “Pre-emergence herbicidal effect ALOMY” value in data set [8] is reported as 100%. The “Pre-emergence herbicidal effect ECHCG” value in data set [9] is on record as 100%. The “Pre-emergence herbicidal effect VERPE” value in [10] is on record as 100%. In addition, the “Pre-emergence herbicidal effect MATIN” value in data set [11] is recorded as 90%. In data set [12], the “Pre-emergence herbicidal effect AVEFA” value is recorded as 90%. Also, in data set [13], the “Pre-emergence herbicidal effect VIOTR” value came out at 100%. Moreover, in data set [14], the “Pre-emergence herbicidal effect STEME” value was found to be 100%. The “Pre-emergence herbicidal effect AMARE” value in data set [15] turned out to be 100%.
For `Cc1ccc2c(c1)[C@H](Nc1nc(C)c(I)c(N)n1)[C@@H](C)C2` [Example 1.46], the “Post-emergence herbicidal effect SETVI” value in data set [1] was determined as 90%. Besides, the “Post-emergence herbicidal effect VERPE” value in [3] worked out at 90%. Besides, the “Post-emergence herbicidal effect VIOTR” value in data set [19] is 90%. Also, the “Post-emergence herbicidal effect ABUTH” value in data set [20] came out at 100%. Moreover, the “Post-emergence herbicidal effect STEME” value in data set [4] is 90%. In addition, the “Post-emergence herbicidal effect AMARE” value in [17] is 100%. The “logp (HCOOH)” value in data set [5] was “wax-like; logp (HCOOH): 1.39; 1H-NMR (CDCl3, 400 MHZ, δ in ppm): 1.25 (d, 3H, CH3);”. Further, in [6], the “Pre-emergence herbicidal effect SETVI” value is 100%. In addition, in [7], the “Pre-emergence herbicidal effect POLCO” value stood at 100%. Also, the “Pre-emergence herbicidal effect LOLMU” value in [18] is recorded as 100%. In [8], the “Pre-emergence herbicidal effect ALOMY” value is reported as 80%. For the same compound, in data set [10], the “Pre-emergence herbicidal effect VERPE” value came out at 100%. For the same compound, in data set [11], the “Pre-emergence herbicidal effect MATIN” value is recorded as 100%. Moreover, in [12], the “Pre-emergence herbicidal effect AVEFA” value was determined as 80%. Also, the “Pre-emergence herbicidal effect VIOTR” value in data set [13] is listed as 100%. In addition, the “Pre-emergence herbicidal effect STEME” value in data set [14] amounted to 100%. The “Pre-emergence herbicidal effect AMARE” value in data set [15] was 100%.
